≈ marks a conversion by molar mass, not a printed value.
Experiment: antioxidant capacity (scavenging of free radical DPPH)
Conditions: main component of the extract
Source text: The extract was obtained by sonication in ethanol 85% at a ratio of 1 g of tissue in 10 volumes of solvent.

Compound: COc1cc(C(=O)O)cc(OC)c1O [syringic acid]
- EC50 (antioxidant capacity): 170 µg/mL (≈ 858 µM)
